Data reported in US10266520B2, “Bisamidinium-based inhibitors for the treatment of myotonic dystrophy” (The Board of Trustees of the University of Illinois, priority 2014, dated 2019).

Experiments:
[1] = test system: Drosophila larvae (24B-GAL4>UAS-i(CTG)480; (CTG)60 control); test: Larval crawling assay; type: in vivo; conditions: for mobility of normal larvae: 400 μM in fly food, control (CTG)60 larvae
Experimental: (§1) FIG. 4A-C. Efficacy of 1a and 2a in DM1 Drosophilia fly mode. (a) Improvement in adult rough eye phenotype. Each experiment was conducted in triplicate. (b) Effect of ligands on the control Drosophilia larvae (24B−GAL4>UAS−(CTG)60). (c) Dose-dependent effect of ligands on the DM1 larvae (24B−GAL4>UAS−i(CTG)480). Each experiment was conducted in triplicate, 10 individual larvae for each trial. Error bars represent standard deviation, two tail t-test *P<0.05, **P<0.01, ***P<0.001.
An individual larva generated from transgenic flies was placed on a Petri dish over graph paper, and the number of grid lines crossed by the larva in 1 min was recorded.
(§2) Drosophila lines were cultured in standard cornmeal medium supplemented with dry yeasts. Fly lines bearing UAS-(CTG)60 and UAS-(CTG)480 were kind gifts of Prof. Rubén Artero Allepuz (Universitate de València, Estudi General, Spain). The gmr-GAL4 and […] lines were used to drive UAS transgene expression in eye and muscles respectively. Ligands 1a and 2a were dissolved in ddH2O and mixed with fly food. Genetic crosses were set up in drug-containing fly food at 21.5° C. for external eye assay, and at 25° C. for larval crawling assay.
Larval crawling assay was performed as previously described (Lanson et al., Hum. Mol. Genet. 2011, 20, 2510-2523). Ten wandering third instar larvae were washed in ddH2O and placed on a 2% agarose gel in a 15-cm Petri dish with gridlines spaced at 0.5 cm. The larvae were allowed to acclimate for a period of 1 min, and the total number of gridlines that the posterior end of the larvae passes in 1 min was determine. Each set of experiment was repeated independently for three times using larvae collected from separate genetic crosses.

[2] = test system: Drosophila flies (gmr-GAL4>UAS-i(CTG)480; CTG60 control); test: Rough eye phenotype in DM1 Drosophila model; type: in vivo; conditions: for eye structure of control flies: 400 μM, CTG60 Drosophila flies
Experimental: as §1, §2

[3] = test system: MBNL1-(CUG)16 complex; test: EMSA inhibition of the MBNL1-(CUG)16 complex; type: biochemical; conditions: for Ki: KI=IC50×KD/[protein]total, read-out: KI, apparent inhibition constant, MBNL1-(CUG)16 complex
Experimental: FIG. 1A-B. Determination of inhibition constants, KI, by EMSA. (a) Representative gels showing the release of (CUG)16 at different ligand concentrations. Top band is the MBNL1-(CUG)16 complex, the bottom band is the free (CUG)16. (b) IC50 values were obtained by plotting the RNA fraction bound versus ligand concentrations. The apparent inhibition constant (KI) was calculated using the equation: KI=IC50×KD/[protein]total, where KD is the dissociation constant of the MBNL1-RNA complex and [protein] is at least 7-fold greater than the KD. Error bars represent standard deviation of three independent experiments.
An electrophoretic mobility shift assay (EMSA) was employed to determine the in vitro inhibition of MBNL1-rCUG^exp complex by monomer 1a and dimers 2a-b (FIG. 1). This study used (CUG)16, which can form a hairpin structure containing a maximum of 8 U-U mismatches. […] Likely, a 1:1 complex was formed. In this study, a truncated MBNL1 (1-272 amino acids) containing four zinc finger motifs of MBNL1 and a hexahistidine tag (C-terminus) was employed. This MBNL1 construct and the full-length MBNL1 have the similar affinities to rCUG repeats.
To determine the inhibition constant of bivalent ligands 2a and 2b, the MBNL1-(CUG)16 mixture, in which ca. 50% of the RNA is free, was incubated with various concentrations of ligand (FIG. 1a). The dimer concentrations were not raised to higher than 10 μM due to the aggregation on the gel at high concentrations. As the concentration of ligand increased, more RNA was released from the complex with MBNL protein. By fitting the plot of bound RNA fractions versus ligand concentrations with an appropriate equation, the IC50 value was determined (FIG. 1b).
(CUG)16 RNA was labeled with [γ-^32P]-ATP using T4 poly-nucleotide kinase (New England Biolabs). Labeled RNA was purified by phenol extraction and ethanol precipitation. Labeled RNA was heated at 95° C. for 5 min, then placed on ice for 10 min and diluted in protein binding buffer (175 mM NaCl, 5 mM MgCl2, 20 mM Tris-HCl (pH 8), 1.25 mM 2-mercapto-ethanol (BME), 12.5% glycerol, 2 mg/ml bovine serum albumin (BSA), 0.1 mg/ml heparin, 0.05% or 0.1% Triton X). For MBNL1-(CUG)16 binding study, MBNL1 was serially diluted by a factor of 3 in protein binding buffer. To each solution was added labeled RNA, so that the final concentration of RNA was 0.2 nM. The resulting mixtures were incubated at room temperature for 10 min and loaded onto a 6% polyacrylamide gel (80:1) at 4° C. The gel was run for 2 h at 180 V in Tris-Borate 0.5× buffer (pH 8.2-8.3). Gels were dried at 80° C. under high vacuum for 2 h, developed overnight in phosphor exposure cassette, and visualized on a Molecular Dynamics Storm PhosphorImager. The KD (1:1 stoichiometry assumption) was obtained by fitting the normalized fraction RNA bound versus the concentration of protein using the equation: Fraction RNA bound=Bmax×[MBNL1]total^h/(KD^h+MBNL1]total^h) where Bmax is maximum fraction RNA bound, h is a Hill slope. Protein concentration in reaction mixture was larger than 10-fold excess over RNA concentration. Data is illustrated in FIGS. 6 and 7.

Structure (SMILES) | crawling defect rescued ([1]; 100 μM, DM1 larvae) | crawling defect rescued ([1]; 200 μM, DM1 larvae) [%] | mobility of normal larvae [1] | crawling defect rescued ([1]; 400 μM, DM1 larvae) [%] | eye structure of control flies [2] | IC50 ([3]; EMSA) [µM] | KI of 1a relative to that for 2a and 2b (fold higher) ([3]; EMSA, identical conditions) [fold] | Ki ([3]; EMSA) [µM] | improvement in the DM1 larva's mobility ([1]; 20 μM, DM1 larvae) [%] | rough eye phenotype ([2]; 50 μM in fly food, gmr-GAL4>UAS-i(CTG)480 flies) | inhibitory power toward the MBNL1-rCUG^exp interaction relative to compound 1a (fold greater) [3]
N=C(NCCCCNc1nc(N)nc(N)n1)c1ccc(C(=N)NCCCCNc2nc(N)nc(N)n2)cc1 [Compound 1a] | ca. 14% | ~54 | the mobility is not affected | ~84 | did not change the fly's eye structure | 189 ± 33 | ~1000 | 16 ± 6 |  |  | 
N=C(NCCCCNc1nc(N)nc(N)n1)c1ccc(C(=N)NCCCCNc2nc(N)nc(NCCCn3cc(CNc4nc(N)nc(NCCCCNC(=N)c5ccc(C(=N)NCCCCNc6nc(N)nc(N)n6)cc5)n4)nn3)n2)cc1 [Compound 2a] | nearly full recovered |  | the mobility is not affected |  | did not change the fly's eye structure | 0.29 ± 0.03 |  | 0.025 ± 0.008 | 37 | partial reversal of rough eye phenotypes | ca. 1000 fold
